Laboratory results: US20180168154A1, “PLANT GROWTH REGULATING COMPOUNDS” (Syngenta Participations AG, priority 2015, published 2018)
Where two headings read alike, the source gives them in different places. Marks after values point to notes of the source that are not given here.

What was measured:
[1] = Soil stability assay; type: physicochemical; details: Stein soil:sand 1:1, 0.3 μg/g soil, dark, 20° C.
Source text: It is highly desirable that agrochemicals applied to soil in order to deliver a beneficial biological effect can exist in the soil for a prolonged period of time with minimal degradation. However, a biologically active agrochemical compound may undergo chemical transformation in soil, leading to decreased levels of activity and a decrease in a desired biological effect. Simple laboratory degradation studies can be used to evaluate the disappearance due to biotic and abiotic processes of a compound in soil. The time taken for a compound to degrade in soil allows the estimation of their half-life (t1/2), which corresponds to the time in which 50% of the compound under evaluation is degraded in soil. […] Stock standard solutions were prepared by dissolving 1 mg of each test compound (ie, compounds (IA-1a and IA-1b), (IA-17a and IA-17b), P1 and P2) in acetonitrile. The stock standard solutions were stored at 6° C. Working standard solutions were then obtained by a series of dilutions of the stock standard solutions. A treatment solution of 100 μg/mL concentration for each test compound was prepared in methanol. Soil samples used for this soil stability assay were collected at the Syngenta Research Centre location in Stein (Switzerland). The soil was classified as clay loam. Certain physical properties of the soil are described in Table 2. 2 mm sieved Stein soil was mixed with sand at ratio 1:1 prior to starting the laboratory soil degradation experiment. 10 g of the sand-soil mix (air-dried basis) was weighed into 50 ml Corning® polypropylene centrifuge tubes and soil moisture was adjusted at 45% of the field capacity. Chemical application was performed by applying 30 μl of a 100 μg/mL solution of each test compound to 10 g soil vessel corresponding to a final concentration of 0.3 μg test compound per gram of soil. Three replicates were considered for each test compound. Treated tubes were incubated in the dark at 20° C.±0.5. For the estimation of half-life, different sampling times were considered. Based on initial studies, a fast degradation was expected for compounds P1, P2 and IA-17 therefore the following short sampling times of 0, 3, 6, 9 and 24 hours after application were considered. Conversely for compounds IA-1, longer sampling times of 0, 6, 24, 48, 72, 168 and 240 hours after application were used. At each sampling time, samples were removed and stored at −80° C. until analysis. The half-lives were calculated by an exponential regression analysis plotting the percentage of recovered compound in soil against the time. Compounds P1, P2, (IA-1) and (IA-17) were extracted from soil by using 30 mL of Acetonitrile (CHROMASOLV® gradient grade, for HPLC, >99.9%, SIGMA-ALDRICH). The mixture was shaken for 3 hours at room temperature by using a vertical rotary shaker. After centrifugation at 3000 rpm for 5 minutes, an aliquot of the supernatant was collected and analyzed via UPLC-MS (Waters Acquity UPLC-MS PDA-Detection: 254 nm- and SQD-Zspray ESI, APCI, ESCi®-; Waters Acquity UPLC Column HSS T3 2.1×30 mm-1.8 μm; Gradient mobile phase with Solvent A: Water/MeOH (9:1)+ 0.1% Formic Acid and Solvent B: Acetonitrile+ 0.1% Formic Acid; flow of 0.75 ml/min).

[2] = Hydrolytic stability assay; type: physicochemical; details: for half-life: 20 mM mixed acetate, borate and phosphate buffer; for half-life / Hydrolytic Stability (t1/2, hours) pH 7: 40° C.; for % remaining at last assessment time: pH 7, 40° C.
Description: The objective of the hydrolytic stability assays is to determine the chemical stability of individual test compounds according to the invention in a controlled and reproducible environment, allowing a comparison of compound in vitro stability under aqueous conditions at pH 7 and 9. Prior to conducting the individual hydrolytic stability assays, stock solutions containing 1000 ppm of each test compound (ie, compounds (IA-1a), (IA-1b), (IA-17a), (IA-17b), P1 and P2) were prepared in methanol. The reagents used in the assays were prepared as follows. A 20 mM buffer solution was prepared from a stock solution of 20 mM mixed acetate, borate and phosphate buffer and the pH adjusted to 7 or 9 as required. Test solutions were prepared in LC vials for each test compound in the following manner: Mobile Phase Control: Mobile phase (1 mL)+compound stock solution (2 to 40 μL). Hydrolytic Stability: Buffer (1 mL)+compound stock solution (2 to 40 μL). The mobile phase and buffer were initially dispensed into separate glass LC vials, placed into an autosampler complete with thermostat set at 40° C. and allowed to equilibrate for 30 minutes prior to starting the individual assays. Reactions were initiated by addition of the compound solution and monitored through a series of repeat injections made directly from the vial into the HPLC system at regular time intervals. Initial and subsequent measurements of peak area attributable to the test compound were used to fit exponential half-lives and calculate first-order rate constants. […] Consequently, the percentage of compound remaining was recorded at the last assessment time.

[3] = system: NK Falkone corn seeds; experiment: Corn seed germination under cold stress; type: in vivo; details: 250 μM, cold stress 15° C., control T50 = 110 hours; negative = faster germination
Description: Corn seed germination studies were undertaken on the compounds of the present invention. In particular, the effect of the compounds of Formulae (IA-1a) and (IA-1b) on the germination of NK Falkone corn seeds (Syngenta) under cold stress was evaluated as follows.
NK Falkone corn seeds were sorted by size using 2 sieves, one excluding very big seeds and the other with round holes of 8 to 9 mm diameter. The seeds retained by the latter sieve were used for the germination test.
The corn seeds were placed in 24 well plates (each plate is considered as one experimental unit or replicate). Germination is initiated by the addition of 250 μl of distilled water containing 0.5% DMSO per well as a means for compound solubilization. 8 replicates (ie, 8 plates) were used for each treatment characterization. Plates were sealed using seal foil (Polyolefin Art. Nr. 900320) from HJ-BIOANALYTIK. All plates were placed horizontally on trolleys in a climatic chamber at 15° C. or 23° C. in complete darkness. The experiment was laid out in a completely randomized design in a climatic chamber with 75% relative humidity. Foils were pierced, one hole per well using a syringe after 72 hours for experiments performed at 15° C. and after 24 hours for experiments performed at 23° C.
Germination was followed over time by taking photographs at different time points. Image analysis is done automatically with a macro developed using the Image J software. A dynamic analysis of germination is carried out by fitting a logistic curve to the relationship between % germination and time for each plate (T50 parameter).
T50 is the time needed for half the seed population to be germinated. A negative value of T50 represents a faster germination rate. The mean of T50 parameters is calculated for the 8 replicates and the kinetic parameter is determined for each germination curve. Data in bold indicate germination enhancing statistically significant differences between treated seeds and control (empty vehicle treated) T50 values (P<0.05) as outlined in Table 4.

[4] = pH 9, 20 mM acetate/borate/phosphate buffer, read-out: Hydrolytic Stability (t1/2, hours) pH 9 (converted)
[5] = pH 7, 20 mM acetate/borate/phosphate buffer
[6] = pH 7, 20 mM acetate/borate/phosphate buffer, read-out: Hydrolytic Stability (t1/2, hours) pH 7 (converted)

Compound	Soil Stability (t1/2, hours) [1] [h]	half-life [2, 4] [h]	Hydrolytic Stability (t1/2, hours) pH 7 [2, 5]	Hydrolytic Stability (t1/2, hours) pH 7 ([2]; pH 7, 20 mM acetate/borate/phosphate buffer, listed as IA-1a)	% remaining at last assessment time ([2]; at 17.9 hours)	Hydrolytic Stability (t1/2, hours) pH 7 ([2]; pH 7, 20 mM acetate/borate/phosphate buffer, listed as IA-1b)	% remaining at last assessment time ([2]; at 21.1 hours)	Hydrolytic Stability (t1/2, hours) pH 7 ([2]; pH 7, 20 mM acetate/borate/phosphate buffer, listed as IA-17a)	% remaining at last assessment time ([2]; at 17.3 hours)	Hydrolytic Stability (t1/2, hours) pH 7 ([2]; pH 7, 20 mM acetate/borate/phosphate buffer, listed as IA-17b)	% remaining at last assessment time ([2]; at 16.8 hours)	half-life [2, 6] [h]	% remaining at last assessment time ([2]; at 21.5 hours)	% remaining at last assessment time ([2]; at 15.8 hours)	T50 (% vs control) [3]
CC1=C(C)[C@H](O/C=C2/C(=O)N[C@@H]3c4ccccc4C[C@H]23)OC1=O [(IA-1a), (3E,3aR,8bS)-3-[[(2R)-3,4-dimethyl-5-oxo-2H-furan-2-yl]oxymethylene]-1,3a,4,8b-tetrahydroindeno[1,2-b]pyrrol-2-one]	87	2.4	stable^b	insufficient loss was observed	^b91.8% remaining at 17.9 hours										−6.10^c % vs control
CC1=C(C)[C@@H](O/C=C2/C(=O)N[C@@H]3c4ccccc4C[C@H]23)OC1=O [(IA-1b), (3E,3aR,8bS)-3-[[(2S)-3,4-dimethyl-5-oxo-2H-furan-2-yl]oxymethylene]-1,3a,4,8b-tetrahydroindeno[1,2-b]pyrrol-2-one]	53	2.1	stable^a			insufficient loss was observed	^a90.9% remaining at 21.1 hours								−7.60 % vs control
COC1=C(C)C(=O)O[C@H]1O/C=C1/C(=O)N[C@@H]2c3ccccc3C[C@H]12 [(IA-17a), (3E,3aR,8bS)-3-[[(2R)-3-methoxy-4-methyl-5-oxo-2H-furan-2-yl]oxymethylene]-1,3a,4,8b-tetrahydroindeno[1,2-b]pyrrol-2-one]	340	16.6	stable^d					insufficient loss was observed	^d99.1% remaining at 17.3 hours						−6.50 % vs control
COC1=C(C)C(=O)O[C@@H]1O/C=C1/C(=O)N[C@@H]2c3ccccc3C[C@H]12 [(IA-17b), (3E,3aR,8bS)-3-[[(2S)-3-methoxy-4-methyl-5-oxo-2H-furan-2-yl]oxymethylene]-1,3a,4,8b-tetrahydroindeno[1,2-b]pyrrol-2-one]	312	19	stable^c							insufficient loss was observed	^c99.0% remaining at 16.8 hours				−5.10 % vs control

Further lines, with some results ahead:

Soil Stability (t1/2, hours) [1] [h]	half-life [2, 4] [h]	Hydrolytic Stability (t1/2, hours) pH 7 [2, 5]	Hydrolytic Stability (t1/2, hours) pH 7 ([2]; pH 7, 20 mM acetate/borate/phosphate buffer, listed as IA-1a)	% remaining at last assessment time ([2]; at 17.9 hours)	Hydrolytic Stability (t1/2, hours) pH 7 ([2]; pH 7, 20 mM acetate/borate/phosphate buffer, listed as IA-1b)	% remaining at last assessment time ([2]; at 21.1 hours)	Hydrolytic Stability (t1/2, hours) pH 7 ([2]; pH 7, 20 mM acetate/borate/phosphate buffer, listed as IA-17a)	% remaining at last assessment time ([2]; at 17.3 hours)	Hydrolytic Stability (t1/2, hours) pH 7 ([2]; pH 7, 20 mM acetate/borate/phosphate buffer, listed as IA-17b)	% remaining at last assessment time ([2]; at 16.8 hours)	half-life [2, 6] [h]	% remaining at last assessment time ([2]; at 21.5 hours)	% remaining at last assessment time ([2]; at 15.8 hours)	Compound	T50 (% vs control) [3]
4	0.4										25.6	^f55.4% remaining at 21.5 hours		CC1=C[C@H](O/C=C2/C(=O)N[C@@H]3c4ccccc4C[C@H]23)OC1=O [Compound P1, reference compound]	−4.20 % vs control
4.2	0.3										79.5		^e86.9% remaining at 15.8 hours	CC1=C[C@@H](O/C=C2/C(=O)N[C@@H]3c4ccccc4C[C@H]23)OC1=O [Compound P2, reference compound]	−2.30 % vs control
